In ChEMBL document CHEMBL5649166, “RIP3 induces apoptosis independent of pronecrotic kinase activity” (Mol Cell, 2014):

Key:
[1] = target: CDK3/Cyclin E (Homo sapiens) (UniProt P24864+Q00526); assay: Inhibition of human CDK3/cyclin E using RB Protein as substrate at 1 uM in presence of 32P-ATP by Hotspot assay relative to control; values are per cent of control
[2] = target: T1, Serine/threonine-protein kinase haspin (Homo sapiens) (UniProt Q8TF76); assay: Inhibition of human Haspin using histone H3 as substrate at 1 uM in presence of 32P-ATP by Hotspot assay relative to control; values are per cent of control
T1 sequence (whole entry): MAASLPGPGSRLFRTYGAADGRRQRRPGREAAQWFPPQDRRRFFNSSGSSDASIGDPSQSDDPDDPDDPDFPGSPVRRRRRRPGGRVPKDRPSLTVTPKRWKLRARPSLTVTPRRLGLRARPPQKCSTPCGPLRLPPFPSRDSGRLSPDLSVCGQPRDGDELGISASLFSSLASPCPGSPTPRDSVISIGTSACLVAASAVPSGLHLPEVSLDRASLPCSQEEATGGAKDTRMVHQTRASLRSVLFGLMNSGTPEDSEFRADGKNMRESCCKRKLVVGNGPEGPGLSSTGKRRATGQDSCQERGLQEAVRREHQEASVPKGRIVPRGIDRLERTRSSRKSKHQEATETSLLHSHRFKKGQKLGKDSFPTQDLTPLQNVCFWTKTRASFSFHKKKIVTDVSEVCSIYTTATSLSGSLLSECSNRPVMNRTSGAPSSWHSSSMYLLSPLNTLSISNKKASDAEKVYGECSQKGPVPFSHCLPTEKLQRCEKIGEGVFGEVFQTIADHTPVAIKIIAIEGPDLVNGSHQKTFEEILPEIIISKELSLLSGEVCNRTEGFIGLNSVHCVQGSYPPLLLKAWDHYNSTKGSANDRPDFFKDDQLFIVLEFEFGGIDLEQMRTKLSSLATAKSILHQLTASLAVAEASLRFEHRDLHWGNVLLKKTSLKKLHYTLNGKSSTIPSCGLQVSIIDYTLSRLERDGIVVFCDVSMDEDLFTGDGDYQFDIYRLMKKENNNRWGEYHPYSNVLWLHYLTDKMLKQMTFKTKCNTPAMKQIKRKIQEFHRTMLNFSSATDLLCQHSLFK

[3] = target: Insulin receptor (Homo sapiens) (UniProt P06213); assay: Inhibition of human IR using poly[Glu:Tyr] (4:1) as substrate at 1 uM in presence of 32P-ATP by Hotspot assay relative to control; values are per cent of control
[4] = target: T2, cAMP-dependent protein kinase catalytic subunit PRKX (Homo sapiens) (UniProt P51817); assay: Inhibition of human PRKX using LRRASLG as substrate at 1 uM in presence of 32P-ATP by Hotspot assay relative to control; values are per cent of control
T2 sequence (whole entry): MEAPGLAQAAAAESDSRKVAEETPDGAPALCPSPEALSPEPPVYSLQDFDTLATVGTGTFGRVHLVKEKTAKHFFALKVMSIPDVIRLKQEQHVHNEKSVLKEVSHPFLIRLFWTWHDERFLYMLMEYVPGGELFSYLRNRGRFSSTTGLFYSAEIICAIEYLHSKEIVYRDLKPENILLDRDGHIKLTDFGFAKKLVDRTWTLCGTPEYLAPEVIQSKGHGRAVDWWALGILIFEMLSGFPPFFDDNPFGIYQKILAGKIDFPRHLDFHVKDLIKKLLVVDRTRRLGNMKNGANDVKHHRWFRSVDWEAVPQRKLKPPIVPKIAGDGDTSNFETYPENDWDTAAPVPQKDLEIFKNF

[5] = target: Calcium/calmodulin-dependent protein kinase type II subunit gamma (Homo sapiens) (UniProt Q13555); assay: Inhibition of human CAMK2g using KKLNRTLSFAEPG as substrate at 1 uM in presence of 32P-ATP by Hotspot assay relative to control; values are per cent of control
Calcium/calmodulin-dependent protein kinase type II subunit gamma (Homo sapiens), sequence (Q13555 whole entry): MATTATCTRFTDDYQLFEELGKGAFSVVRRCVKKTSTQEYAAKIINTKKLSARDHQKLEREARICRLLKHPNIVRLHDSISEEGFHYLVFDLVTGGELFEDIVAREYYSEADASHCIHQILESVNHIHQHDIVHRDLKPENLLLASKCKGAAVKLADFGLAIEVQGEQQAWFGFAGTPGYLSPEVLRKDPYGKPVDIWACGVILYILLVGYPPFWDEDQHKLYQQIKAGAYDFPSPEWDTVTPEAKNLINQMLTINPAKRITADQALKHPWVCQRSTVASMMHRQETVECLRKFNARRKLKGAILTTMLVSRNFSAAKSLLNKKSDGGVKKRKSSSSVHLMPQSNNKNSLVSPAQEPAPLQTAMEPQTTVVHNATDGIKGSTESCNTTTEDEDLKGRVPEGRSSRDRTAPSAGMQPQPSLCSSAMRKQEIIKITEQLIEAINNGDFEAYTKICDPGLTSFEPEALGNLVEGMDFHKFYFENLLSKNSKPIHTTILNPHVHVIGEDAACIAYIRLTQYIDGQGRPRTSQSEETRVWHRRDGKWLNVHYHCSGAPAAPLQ

[6] = target: T3, NUAK family SNF1-like kinase 1 (Homo sapiens) (UniProt O60285); assay: Inhibition of human ARK5/NUAK1 using KKKVSRSGLYRSPSMPENLNRPR as substrate at 1 uM in presence of 32P-ATP by Hotspot assay relative to control; values are per cent of control
T3 sequence (whole entry): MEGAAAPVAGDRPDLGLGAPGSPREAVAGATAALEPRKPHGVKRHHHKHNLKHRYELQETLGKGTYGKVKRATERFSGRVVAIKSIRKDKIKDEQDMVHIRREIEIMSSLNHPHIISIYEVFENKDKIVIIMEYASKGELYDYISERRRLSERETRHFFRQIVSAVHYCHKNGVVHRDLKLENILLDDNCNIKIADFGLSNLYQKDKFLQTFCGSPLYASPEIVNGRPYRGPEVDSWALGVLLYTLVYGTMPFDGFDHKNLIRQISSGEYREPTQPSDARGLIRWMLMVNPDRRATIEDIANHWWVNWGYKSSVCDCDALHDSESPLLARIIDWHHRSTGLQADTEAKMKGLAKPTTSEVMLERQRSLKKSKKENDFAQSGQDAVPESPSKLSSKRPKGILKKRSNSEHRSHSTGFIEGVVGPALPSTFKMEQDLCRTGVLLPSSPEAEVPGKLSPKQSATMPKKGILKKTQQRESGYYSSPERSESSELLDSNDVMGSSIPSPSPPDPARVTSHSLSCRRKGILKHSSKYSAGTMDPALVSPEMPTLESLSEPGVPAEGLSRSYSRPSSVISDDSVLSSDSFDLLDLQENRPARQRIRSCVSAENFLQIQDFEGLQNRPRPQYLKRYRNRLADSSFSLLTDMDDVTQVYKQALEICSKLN

[7] = target: Insulin receptor-related protein (Homo sapiens) (UniProt P14616); assay: Inhibition of human IRR/INSRR using myelin basic protein as substrate at 1 uM in presence of 32P-ATP by Hotspot assay relative to control; values are per cent of control
Insulin receptor-related protein (Homo sapiens), sequence (P14616 27-742 limits assumed): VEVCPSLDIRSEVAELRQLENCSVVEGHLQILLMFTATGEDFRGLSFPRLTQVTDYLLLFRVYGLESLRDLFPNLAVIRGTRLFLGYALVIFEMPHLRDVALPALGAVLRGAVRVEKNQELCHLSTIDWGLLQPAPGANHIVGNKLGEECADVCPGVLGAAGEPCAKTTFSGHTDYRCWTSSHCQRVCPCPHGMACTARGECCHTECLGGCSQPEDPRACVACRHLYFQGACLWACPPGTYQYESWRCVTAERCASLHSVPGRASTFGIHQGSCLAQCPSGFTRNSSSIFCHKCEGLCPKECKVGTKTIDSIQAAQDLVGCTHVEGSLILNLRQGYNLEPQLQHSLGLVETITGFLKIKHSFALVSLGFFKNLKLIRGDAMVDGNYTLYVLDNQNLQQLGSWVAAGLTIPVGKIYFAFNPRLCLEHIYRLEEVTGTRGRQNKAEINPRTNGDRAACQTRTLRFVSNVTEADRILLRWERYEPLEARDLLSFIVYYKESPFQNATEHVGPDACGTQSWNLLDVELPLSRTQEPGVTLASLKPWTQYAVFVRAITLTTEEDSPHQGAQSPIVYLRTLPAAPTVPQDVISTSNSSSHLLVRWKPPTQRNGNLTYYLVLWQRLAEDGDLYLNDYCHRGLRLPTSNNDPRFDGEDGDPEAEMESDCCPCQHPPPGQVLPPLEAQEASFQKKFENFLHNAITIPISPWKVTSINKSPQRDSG
Insulin receptor-related protein (Homo sapiens), sequence (P14616 747-1297 limits assumed): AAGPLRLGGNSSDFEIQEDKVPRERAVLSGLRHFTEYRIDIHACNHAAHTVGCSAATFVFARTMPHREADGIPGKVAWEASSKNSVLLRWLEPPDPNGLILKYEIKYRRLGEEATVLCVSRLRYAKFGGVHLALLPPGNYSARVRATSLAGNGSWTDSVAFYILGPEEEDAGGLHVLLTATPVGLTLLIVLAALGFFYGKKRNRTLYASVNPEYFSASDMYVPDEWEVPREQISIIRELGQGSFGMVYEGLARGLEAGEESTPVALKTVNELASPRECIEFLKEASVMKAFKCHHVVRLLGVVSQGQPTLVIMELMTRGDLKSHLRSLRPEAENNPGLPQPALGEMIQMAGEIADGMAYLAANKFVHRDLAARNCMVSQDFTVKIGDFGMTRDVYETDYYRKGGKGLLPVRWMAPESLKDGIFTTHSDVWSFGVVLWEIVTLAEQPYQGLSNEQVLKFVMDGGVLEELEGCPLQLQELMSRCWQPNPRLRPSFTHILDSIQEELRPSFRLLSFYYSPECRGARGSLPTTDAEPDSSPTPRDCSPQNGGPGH

[8] = target: Cyclin-dependent kinase 5/CDK5 activator 1 (Homo sapiens) (UniProt Q00535+Q15078); assay: Inhibition of human CDK5/p35 using RB Protein as substrate at 1 uM in presence of 32P-ATP by Hotspot assay relative to control; values are per cent of control
[9] = target: Leucine-rich repeat serine/threonine-protein kinase 2 (Homo sapiens) (UniProt Q5S007); assay: Inhibition of human LRRK2 using RLGRDKYKTLRQIRQ as substrate at 1 uM in presence of 32P-ATP by Hotspot assay relative to control; values are per cent of control
Leucine-rich repeat serine/threonine-protein kinase 2 (Homo sapiens), sequence (Q5S007 whole entry): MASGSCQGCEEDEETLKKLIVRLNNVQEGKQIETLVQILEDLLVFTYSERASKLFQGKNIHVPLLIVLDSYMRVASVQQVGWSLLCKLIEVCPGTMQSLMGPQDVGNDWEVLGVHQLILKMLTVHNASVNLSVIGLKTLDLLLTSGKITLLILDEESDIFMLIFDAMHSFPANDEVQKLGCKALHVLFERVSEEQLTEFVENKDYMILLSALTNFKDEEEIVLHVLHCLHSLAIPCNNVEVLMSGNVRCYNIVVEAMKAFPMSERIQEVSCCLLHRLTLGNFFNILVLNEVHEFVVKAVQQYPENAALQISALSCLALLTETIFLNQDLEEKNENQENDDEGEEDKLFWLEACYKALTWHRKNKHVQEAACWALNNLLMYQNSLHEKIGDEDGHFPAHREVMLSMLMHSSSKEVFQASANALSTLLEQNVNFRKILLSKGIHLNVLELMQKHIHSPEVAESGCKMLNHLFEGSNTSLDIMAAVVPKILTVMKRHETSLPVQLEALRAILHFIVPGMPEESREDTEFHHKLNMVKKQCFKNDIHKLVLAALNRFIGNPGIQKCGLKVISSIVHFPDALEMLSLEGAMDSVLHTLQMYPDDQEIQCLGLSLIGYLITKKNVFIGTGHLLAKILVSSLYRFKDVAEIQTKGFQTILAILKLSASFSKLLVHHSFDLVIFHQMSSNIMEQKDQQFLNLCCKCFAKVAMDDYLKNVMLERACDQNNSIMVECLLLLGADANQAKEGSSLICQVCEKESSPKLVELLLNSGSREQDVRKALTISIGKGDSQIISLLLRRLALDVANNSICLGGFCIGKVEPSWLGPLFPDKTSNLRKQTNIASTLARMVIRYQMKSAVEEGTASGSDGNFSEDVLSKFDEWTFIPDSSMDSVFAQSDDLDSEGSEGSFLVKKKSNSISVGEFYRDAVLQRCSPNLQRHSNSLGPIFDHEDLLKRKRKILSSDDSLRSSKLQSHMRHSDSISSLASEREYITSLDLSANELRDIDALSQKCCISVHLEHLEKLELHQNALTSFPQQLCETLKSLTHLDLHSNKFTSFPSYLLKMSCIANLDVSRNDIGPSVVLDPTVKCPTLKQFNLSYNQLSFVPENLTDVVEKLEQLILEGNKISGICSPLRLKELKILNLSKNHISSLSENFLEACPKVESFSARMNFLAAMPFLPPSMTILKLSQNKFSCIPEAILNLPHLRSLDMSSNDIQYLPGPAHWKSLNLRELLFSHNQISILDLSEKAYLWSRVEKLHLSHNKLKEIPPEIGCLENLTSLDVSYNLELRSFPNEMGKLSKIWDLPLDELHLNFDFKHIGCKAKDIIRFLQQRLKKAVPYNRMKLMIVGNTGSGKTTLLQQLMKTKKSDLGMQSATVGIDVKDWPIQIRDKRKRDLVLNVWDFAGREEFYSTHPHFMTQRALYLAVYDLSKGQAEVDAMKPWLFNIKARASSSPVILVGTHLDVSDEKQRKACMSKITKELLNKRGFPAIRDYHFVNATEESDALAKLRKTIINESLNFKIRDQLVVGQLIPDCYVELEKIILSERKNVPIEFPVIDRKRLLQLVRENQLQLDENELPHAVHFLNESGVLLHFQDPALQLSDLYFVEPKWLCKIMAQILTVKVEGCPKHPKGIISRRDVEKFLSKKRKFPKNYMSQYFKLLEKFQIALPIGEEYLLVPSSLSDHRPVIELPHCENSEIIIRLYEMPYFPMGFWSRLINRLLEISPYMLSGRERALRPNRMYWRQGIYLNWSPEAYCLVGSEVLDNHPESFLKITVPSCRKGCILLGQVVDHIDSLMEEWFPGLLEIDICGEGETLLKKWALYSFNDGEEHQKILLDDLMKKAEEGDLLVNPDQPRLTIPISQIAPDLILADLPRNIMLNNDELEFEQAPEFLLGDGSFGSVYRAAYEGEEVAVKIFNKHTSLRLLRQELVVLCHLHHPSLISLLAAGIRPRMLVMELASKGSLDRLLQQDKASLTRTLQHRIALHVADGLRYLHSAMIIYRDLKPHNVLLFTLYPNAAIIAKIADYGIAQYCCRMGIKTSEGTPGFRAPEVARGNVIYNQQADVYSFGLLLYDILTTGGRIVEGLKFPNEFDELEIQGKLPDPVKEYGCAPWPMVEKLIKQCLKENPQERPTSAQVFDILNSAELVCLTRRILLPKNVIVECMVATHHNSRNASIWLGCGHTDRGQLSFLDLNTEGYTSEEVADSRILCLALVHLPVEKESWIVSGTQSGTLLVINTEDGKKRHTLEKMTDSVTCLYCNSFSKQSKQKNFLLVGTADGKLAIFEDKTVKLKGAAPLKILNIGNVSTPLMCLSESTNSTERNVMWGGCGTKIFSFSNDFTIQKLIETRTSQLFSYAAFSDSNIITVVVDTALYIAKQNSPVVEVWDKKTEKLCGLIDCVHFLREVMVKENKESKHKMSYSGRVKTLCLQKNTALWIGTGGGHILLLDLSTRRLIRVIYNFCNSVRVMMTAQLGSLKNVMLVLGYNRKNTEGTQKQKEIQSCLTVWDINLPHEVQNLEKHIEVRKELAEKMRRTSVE

CDK3/Cyclin E (Homo sapiens), sequence (P24864 whole entry, looked up): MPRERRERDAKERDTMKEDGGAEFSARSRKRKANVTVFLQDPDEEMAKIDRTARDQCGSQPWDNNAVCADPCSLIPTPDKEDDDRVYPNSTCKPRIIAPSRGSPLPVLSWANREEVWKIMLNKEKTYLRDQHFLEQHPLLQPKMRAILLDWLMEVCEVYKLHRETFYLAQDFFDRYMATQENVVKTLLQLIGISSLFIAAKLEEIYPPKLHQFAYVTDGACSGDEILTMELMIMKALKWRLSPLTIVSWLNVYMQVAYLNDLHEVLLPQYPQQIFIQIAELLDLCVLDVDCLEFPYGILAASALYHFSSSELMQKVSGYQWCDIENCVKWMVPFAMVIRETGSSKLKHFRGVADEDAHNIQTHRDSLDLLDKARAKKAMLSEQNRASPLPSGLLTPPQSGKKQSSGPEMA
CDK3/Cyclin E (Homo sapiens), sequence (Q00526 whole entry, looked up): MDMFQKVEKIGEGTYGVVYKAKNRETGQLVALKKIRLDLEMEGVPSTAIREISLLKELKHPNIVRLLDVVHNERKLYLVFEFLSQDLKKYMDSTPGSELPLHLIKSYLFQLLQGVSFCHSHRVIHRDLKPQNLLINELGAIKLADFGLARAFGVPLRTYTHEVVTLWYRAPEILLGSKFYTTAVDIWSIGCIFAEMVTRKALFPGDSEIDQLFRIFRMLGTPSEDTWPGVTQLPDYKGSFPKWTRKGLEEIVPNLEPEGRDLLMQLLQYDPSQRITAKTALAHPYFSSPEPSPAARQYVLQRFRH

SMILES	residual activity [1]	residual activity [2]	residual activity [3]	residual activity [4]	residual activity [5]	residual activity [6]	residual activity [7]	residual activity [8]	residual activity [9]
Cc1cc(-c2cnc(N)c3c(-c4ccc5scnc5c4)csc23)n(C)n1	87.6%	95.5%	101%	94.2%	82.4%	98.5%	86.7%	97.8%	88.5%
CC(C)S(=O)(=O)c1ccc2nccc(Nc3ccc4scnc4c3)c2c1	88.5%	86.2%	90.4%	101%	98.3%	98.4%	98.6%	98.7%	90.5%
CNC(=O)c1ccc2c(c1)ncn2-c1ccc(CC(=O)OC(C)(C)C)cc1	92.4%	98.1%	90%	93.6%	98.5%	91.7%	93.3%	97.1%	94.5%
